Kd data for 16 compounds are collected here from ChEMBL document CHEMBL3991601, “The target landscape of clinical kinase drugs” (Science, 2017).

Active and inactive are the calls of the source.

A word on the Kd: it is the constant that tells how readily two partners part at equilibrium.

One assay deals with Focal adhesion kinase 1 (Homo sapiens, UniProt Q05397).
Assay [1] deals with cAMP-dependent protein kinase type II-alpha regulatory subunit (Homo sapiens, UniProt P13861).
Assay [2] concerns the target Mitogen-activated protein kinase 11 (Homo sapiens, UniProt Q15759).
The target in assay [3] is T1, Electron transfer flavoprotein subunit beta (Homo sapiens, UniProt P38117).
T1 sequence (P38117 whole entry): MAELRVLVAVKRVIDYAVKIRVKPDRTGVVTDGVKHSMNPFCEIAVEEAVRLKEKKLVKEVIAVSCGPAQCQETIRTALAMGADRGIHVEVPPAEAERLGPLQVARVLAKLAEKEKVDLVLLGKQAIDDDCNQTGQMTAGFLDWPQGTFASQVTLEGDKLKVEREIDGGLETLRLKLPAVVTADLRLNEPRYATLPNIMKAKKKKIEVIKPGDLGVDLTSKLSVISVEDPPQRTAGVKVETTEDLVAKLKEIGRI

The next assay concerns the target T2, Glycine--tRNA ligase (Homo sapiens, UniProt P41250).
T2 sequence (P41250 whole entry): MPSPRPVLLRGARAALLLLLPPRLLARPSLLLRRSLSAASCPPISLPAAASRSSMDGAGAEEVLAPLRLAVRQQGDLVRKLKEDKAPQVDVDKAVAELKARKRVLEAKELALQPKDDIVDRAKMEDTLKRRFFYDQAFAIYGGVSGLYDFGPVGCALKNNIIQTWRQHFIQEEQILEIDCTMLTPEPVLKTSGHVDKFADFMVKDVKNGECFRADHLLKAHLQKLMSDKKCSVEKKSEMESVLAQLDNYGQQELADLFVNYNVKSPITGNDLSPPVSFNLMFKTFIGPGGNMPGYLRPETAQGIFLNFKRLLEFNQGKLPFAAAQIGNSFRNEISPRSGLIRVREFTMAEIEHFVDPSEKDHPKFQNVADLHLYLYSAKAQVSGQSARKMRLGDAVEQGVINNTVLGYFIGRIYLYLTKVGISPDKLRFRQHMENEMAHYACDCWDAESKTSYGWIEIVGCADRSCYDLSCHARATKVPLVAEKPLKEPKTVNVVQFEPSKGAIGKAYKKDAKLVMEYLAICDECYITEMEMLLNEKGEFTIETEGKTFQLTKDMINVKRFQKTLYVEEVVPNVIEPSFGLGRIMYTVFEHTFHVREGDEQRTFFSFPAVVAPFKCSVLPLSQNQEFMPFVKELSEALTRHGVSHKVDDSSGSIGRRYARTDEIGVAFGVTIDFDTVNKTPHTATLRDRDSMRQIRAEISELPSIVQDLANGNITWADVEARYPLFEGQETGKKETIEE

Assay [4] has as its target T3, cGMP-dependent protein kinase 1 (Homo sapiens, UniProt Q13976).
T3 sequence (Q13976 whole entry): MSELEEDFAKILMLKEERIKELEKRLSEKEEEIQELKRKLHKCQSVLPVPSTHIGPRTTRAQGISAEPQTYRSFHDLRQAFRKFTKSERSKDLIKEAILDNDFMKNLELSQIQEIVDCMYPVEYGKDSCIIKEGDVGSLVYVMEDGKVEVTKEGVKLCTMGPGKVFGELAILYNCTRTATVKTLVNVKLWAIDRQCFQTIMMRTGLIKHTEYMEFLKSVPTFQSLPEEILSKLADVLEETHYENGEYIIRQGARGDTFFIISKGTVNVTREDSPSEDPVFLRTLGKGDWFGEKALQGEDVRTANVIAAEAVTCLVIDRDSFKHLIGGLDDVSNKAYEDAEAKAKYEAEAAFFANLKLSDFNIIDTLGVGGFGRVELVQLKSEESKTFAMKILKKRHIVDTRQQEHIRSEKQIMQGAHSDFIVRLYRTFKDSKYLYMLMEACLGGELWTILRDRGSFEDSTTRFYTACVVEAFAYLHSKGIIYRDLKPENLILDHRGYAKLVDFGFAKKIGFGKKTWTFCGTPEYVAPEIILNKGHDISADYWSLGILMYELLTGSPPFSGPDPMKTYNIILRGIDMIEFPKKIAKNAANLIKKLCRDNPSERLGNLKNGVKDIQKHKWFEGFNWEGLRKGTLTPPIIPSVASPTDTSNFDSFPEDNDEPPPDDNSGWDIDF

The target in assay [5] is Serine/threonine-protein kinase SIK3 (Homo sapiens, UniProt Q9Y2K2).
Sequence of Serine/threonine-protein kinase SIK3 (Q9Y2K2 whole entry): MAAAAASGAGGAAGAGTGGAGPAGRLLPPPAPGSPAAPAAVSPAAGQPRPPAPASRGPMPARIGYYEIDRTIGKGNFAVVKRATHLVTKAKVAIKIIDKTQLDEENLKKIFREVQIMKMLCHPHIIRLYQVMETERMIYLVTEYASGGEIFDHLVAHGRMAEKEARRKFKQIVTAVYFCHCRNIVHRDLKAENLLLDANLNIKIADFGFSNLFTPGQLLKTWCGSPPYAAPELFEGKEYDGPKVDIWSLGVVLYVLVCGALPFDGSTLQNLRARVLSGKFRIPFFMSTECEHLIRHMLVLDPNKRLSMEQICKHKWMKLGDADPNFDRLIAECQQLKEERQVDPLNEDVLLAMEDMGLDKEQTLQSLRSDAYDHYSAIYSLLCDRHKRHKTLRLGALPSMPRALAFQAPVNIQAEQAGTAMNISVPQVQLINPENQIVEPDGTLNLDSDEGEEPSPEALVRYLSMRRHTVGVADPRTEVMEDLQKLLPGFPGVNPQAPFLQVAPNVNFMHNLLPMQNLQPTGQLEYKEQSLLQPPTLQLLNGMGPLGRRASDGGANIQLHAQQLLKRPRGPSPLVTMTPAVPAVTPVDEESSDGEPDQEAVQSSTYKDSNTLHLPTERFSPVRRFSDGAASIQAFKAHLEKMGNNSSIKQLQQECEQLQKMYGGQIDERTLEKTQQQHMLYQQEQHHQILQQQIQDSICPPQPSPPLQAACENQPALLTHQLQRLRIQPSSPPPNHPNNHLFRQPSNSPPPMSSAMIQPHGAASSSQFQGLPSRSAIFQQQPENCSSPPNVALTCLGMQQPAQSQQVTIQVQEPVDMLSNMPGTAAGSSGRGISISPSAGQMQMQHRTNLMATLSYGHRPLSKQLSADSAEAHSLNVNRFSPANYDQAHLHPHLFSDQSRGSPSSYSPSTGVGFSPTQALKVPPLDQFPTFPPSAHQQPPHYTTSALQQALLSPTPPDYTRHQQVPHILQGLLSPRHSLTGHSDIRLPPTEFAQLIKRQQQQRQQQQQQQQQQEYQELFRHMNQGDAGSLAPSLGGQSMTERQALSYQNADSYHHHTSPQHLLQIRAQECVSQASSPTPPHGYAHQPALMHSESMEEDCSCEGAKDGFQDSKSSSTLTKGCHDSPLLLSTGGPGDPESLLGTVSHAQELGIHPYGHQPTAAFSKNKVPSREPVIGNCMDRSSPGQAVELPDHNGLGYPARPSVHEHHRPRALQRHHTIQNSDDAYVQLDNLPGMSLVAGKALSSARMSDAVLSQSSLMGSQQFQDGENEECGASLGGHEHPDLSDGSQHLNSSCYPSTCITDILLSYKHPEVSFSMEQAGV
In assay [6] the target is Serine/threonine-protein kinase 16 (Homo sapiens, UniProt O75716).
Sequence of Serine/threonine-protein kinase 16 (O75716 whole entry): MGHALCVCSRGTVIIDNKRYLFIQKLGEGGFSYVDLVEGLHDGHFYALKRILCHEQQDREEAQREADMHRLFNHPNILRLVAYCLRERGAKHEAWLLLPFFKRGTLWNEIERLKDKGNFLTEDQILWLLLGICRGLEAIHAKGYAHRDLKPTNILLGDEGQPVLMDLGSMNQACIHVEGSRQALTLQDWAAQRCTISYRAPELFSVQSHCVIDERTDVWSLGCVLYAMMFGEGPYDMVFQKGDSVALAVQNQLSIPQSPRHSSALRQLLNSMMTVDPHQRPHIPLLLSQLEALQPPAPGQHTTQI
Also: in the data inactive means no Kd found up to 30 µM.

Sequence of Focal adhesion kinase 1 (Q05397 whole entry): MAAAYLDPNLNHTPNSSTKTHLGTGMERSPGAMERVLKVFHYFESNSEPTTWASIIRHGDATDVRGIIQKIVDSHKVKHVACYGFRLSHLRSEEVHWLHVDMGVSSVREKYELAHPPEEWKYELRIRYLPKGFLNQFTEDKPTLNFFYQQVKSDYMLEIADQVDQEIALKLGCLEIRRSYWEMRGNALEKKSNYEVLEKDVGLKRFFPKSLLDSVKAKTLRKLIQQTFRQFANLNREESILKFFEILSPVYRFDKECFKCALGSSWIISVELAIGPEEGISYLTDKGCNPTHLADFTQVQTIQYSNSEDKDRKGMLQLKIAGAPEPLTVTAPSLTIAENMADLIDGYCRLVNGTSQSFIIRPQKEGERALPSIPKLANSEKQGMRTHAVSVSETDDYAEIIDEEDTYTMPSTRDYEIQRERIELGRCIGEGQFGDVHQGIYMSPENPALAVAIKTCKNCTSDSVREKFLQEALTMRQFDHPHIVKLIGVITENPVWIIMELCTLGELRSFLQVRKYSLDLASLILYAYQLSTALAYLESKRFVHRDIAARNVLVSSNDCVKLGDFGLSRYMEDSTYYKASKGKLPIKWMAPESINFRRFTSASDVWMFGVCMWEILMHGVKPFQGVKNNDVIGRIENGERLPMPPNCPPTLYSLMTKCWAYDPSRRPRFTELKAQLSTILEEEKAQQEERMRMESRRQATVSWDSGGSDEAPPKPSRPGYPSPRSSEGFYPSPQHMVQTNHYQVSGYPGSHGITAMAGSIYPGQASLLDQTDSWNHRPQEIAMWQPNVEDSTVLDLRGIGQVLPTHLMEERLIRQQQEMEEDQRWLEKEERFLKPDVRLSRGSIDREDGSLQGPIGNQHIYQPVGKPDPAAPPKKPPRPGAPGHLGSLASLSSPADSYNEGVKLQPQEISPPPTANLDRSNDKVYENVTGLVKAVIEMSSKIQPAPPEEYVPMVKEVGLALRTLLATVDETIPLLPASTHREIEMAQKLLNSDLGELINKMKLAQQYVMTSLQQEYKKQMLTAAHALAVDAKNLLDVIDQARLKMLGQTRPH
Sequence of cAMP-dependent protein kinase type II-alpha regulatory subunit (P13861 whole entry): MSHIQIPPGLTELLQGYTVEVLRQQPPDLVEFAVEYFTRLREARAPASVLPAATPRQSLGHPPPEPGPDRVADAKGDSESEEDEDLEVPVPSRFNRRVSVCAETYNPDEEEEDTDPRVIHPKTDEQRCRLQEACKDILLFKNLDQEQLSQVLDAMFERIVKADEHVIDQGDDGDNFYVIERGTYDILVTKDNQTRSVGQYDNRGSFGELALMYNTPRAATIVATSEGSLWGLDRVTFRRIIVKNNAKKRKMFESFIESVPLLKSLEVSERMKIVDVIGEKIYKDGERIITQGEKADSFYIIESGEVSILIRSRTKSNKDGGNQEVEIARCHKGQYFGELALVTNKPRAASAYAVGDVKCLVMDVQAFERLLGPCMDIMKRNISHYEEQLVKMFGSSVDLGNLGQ
Sequence of Mitogen-activated protein kinase 11 (Q15759 whole entry): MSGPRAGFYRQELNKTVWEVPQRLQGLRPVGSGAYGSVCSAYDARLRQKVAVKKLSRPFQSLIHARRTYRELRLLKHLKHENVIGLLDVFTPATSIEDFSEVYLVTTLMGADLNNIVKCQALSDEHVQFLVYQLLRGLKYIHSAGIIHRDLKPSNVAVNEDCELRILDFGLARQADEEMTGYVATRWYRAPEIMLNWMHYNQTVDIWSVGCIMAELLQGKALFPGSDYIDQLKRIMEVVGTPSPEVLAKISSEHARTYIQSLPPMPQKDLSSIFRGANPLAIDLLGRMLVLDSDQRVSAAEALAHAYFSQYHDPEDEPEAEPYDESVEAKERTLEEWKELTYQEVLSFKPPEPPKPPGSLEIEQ

Regarding `CC(=O)Nc1cccc(-n2c(=O)n(C3CC3)c(=O)c3c(Nc4ccc(I)cc4F)n(C)c(=O)c(C)c32)c1` [TRAMETINIB], the Kd (on Focal adhesion kinase 1; in assay [1]; in assay [2]; in assay [3]; at Glycine--tRNA ligase; in assay [4]) was > 30 µM (inactive) in each case. The Kd in assay [5] and in assay [6] was > 30 µM (inactive) each time.

As for `Cn1ncc(Cl)c1-c1cc(C(=O)N[C@H](CN)Cc2cccc(F)c2)sc1Cl` [AFURESERTIB], the Kd (at Focal adhesion kinase 1; in assay [1]; in assay [2]; in assay [3]; at Glycine--tRNA ligase; in assay [4]) was > 30 µM (inactive) throughout. Moreover, the Kd in assay [5] and in assay [6] was > 30 µM (inactive) in each case.

`CCCS(=O)(=O)Nc1ccc(F)c(C(=O)c2c[nH]c3ncc(-c4ccc(Cl)cc4)cc23)c1F` [VEMURAFENIB]: the Kd (at Focal adhesion kinase 1; in assay [1]; in assay [2]; in assay [3]; at Glycine--tRNA ligase; in assay [4]) was > 30 µM (inactive) throughout. The Kd in assay [5] and in assay [6] was > 30 µM (inactive) in each case.

For `COCCNCc1ccc(-c2cc3nccc(Oc4ccc(NC(=S)NC(=O)Cc5ccc(F)cc5)cc4F)c3s2)nc1` [GLESATINIB], the Kd (at Focal adhesion kinase 1; in assay [1]; in assay [2]; in assay [3]; at Glycine--tRNA ligase; in assay [4]) was > 30 µM (inactive) each time. Further, the Kd in assay [5] and in assay [6] was > 30 µM (inactive) throughout.

With `COC(=O)[C@@]1(O)C[C@H]2O[C@]1(C)n1c3ccccc3c3c4c(c5c6ccccc6n2c5c31)C(=O)NC4` [K-252A], the Kd (on Focal adhesion kinase 1; in assay [1]; in assay [2]; in assay [3]; at Glycine--tRNA ligase; in assay [4]) was > 30 µM (inactive) in each case. In addition, the Kd in assay [5] is 4.03 µM (active); in assay [6] it was > 30 µM (inactive).

As to `Cn1cc(-c2ccc3nnc(C(F)(F)c4ccc5ncccc5c4)n3n2)cn1` [JNJ-38877605], the Kd (at Focal adhesion kinase 1; in assay [1]; in assay [2]; in assay [3]; on Glycine--tRNA ligase; in assay [4]) was > 30 µM (inactive) in each case. Besides, the Kd in assay [5] and in assay [6] was > 30 µM (inactive) in each case.

`Cc1cc([C@@H](C)Nc2ccccc2C(=O)O)c2nc(N3CCOCC3)cc(=O)n2c1` [AZD-6482]: the Kd (at Focal adhesion kinase 1; in assay [1]; in assay [2]; in assay [3]; on Glycine--tRNA ligase; in assay [4]) was > 30 µM (inactive) in each case. Further, the Kd in assay [5] and in assay [6] was > 30 µM (inactive) in each case.

With `CNC(=O)c1ccc(-c2cnc3ncc(Cc4ccc5ncccc5c4)n3n2)cc1F` [CAPMATINIB], the Kd (on Focal adhesion kinase 1; in assay [1]; in assay [2]; in assay [3]; at Glycine--tRNA ligase; in assay [4]) was > 30 µM (inactive) in each case. Besides, the Kd in assay [5] and in assay [6] was > 30 µM (inactive) throughout.

Take `CN1CC[C@@H](c2c(O)cc(O)c3c(=O)cc(-c4ccccc4Cl)oc23)[C@@H]1CO`: the Kd (at Focal adhesion kinase 1; in assay [1]; in assay [2]; in assay [3]; on Glycine--tRNA ligase; in assay [4]) was > 30 µM (inactive) each time. The Kd in assay [5] and in assay [6] was > 30 µM (inactive) in each case.

Consider `N[C@@H]1CCCN(c2c(/C=C3\SC(=O)NC3=O)cccc2-c2ccccc2)C1`, for which the Kd (on Focal adhesion kinase 1; in assay [1]; in assay [2]; in assay [3]; on Glycine--tRNA ligase; in assay [4]) was > 30 µM (inactive) in each case. Also, the Kd in assay [5] and in assay [6] was > 30 µM (inactive) each time.

Take `CCN1CCN(Cc2ccc(-c3cc4c(N[C@H](C)c5ccccc5)ncnc4[nH]3)cc2)CC1` [AEE-788]: the Kd (at Focal adhesion kinase 1; in assay [1]; in assay [2]; in assay [3]; at Glycine--tRNA ligase; in assay [4]) was > 30 µM (inactive) each time. Moreover, the Kd in assay [5] and in assay [6] was > 30 µM (inactive) in each case.

As to `O=C(Nc1ccc(-c2ccnc(Nc3ccc(N4CCOCC4)cc3)n2)cc1)C1CCCN1` (stereo not drawn) [XL-019], the Kd (at Focal adhesion kinase 1; in assay [1]; in assay [2]; in assay [3]; on Glycine--tRNA ligase; in assay [4]) was > 30 µM (inactive) throughout. Besides, the Kd is 0.206 µM (active) in assay [5] and > 30 µM (inactive) in assay [6].

For the compound `CN1CCC(COc2cnc(-c3cccc(Cn4nc(-c5cccc(C#N)c5)ccc4=O)c3)nc2)CC1` [TEPOTINIB], the Kd (at Focal adhesion kinase 1; in assay [1]; in assay [2]; in assay [3]; on Glycine--tRNA ligase; in assay [4]) was > 30 µM (inactive) each time. The Kd in assay [5] and in assay [6] was > 30 µM (inactive) throughout.

Turning to `COc1cc2nccc(Oc3ccc(NC(=O)NC4CC4)c(Cl)c3)c2cc1C(N)=O` [LENVATINIB], the Kd (at Focal adhesion kinase 1; in assay [1]; in assay [2]; in assay [3]; at Glycine--tRNA ligase; in assay [4]) was > 30 µM (inactive) in each case. Besides, the Kd in assay [5] and in assay [6] was > 30 µM (inactive) throughout.

Regarding `CCn1c(=O)c(-c2cc[nH]n2)cc2c(C)nc(N)nc21` [VOXTALISIB], the Kd (at Focal adhesion kinase 1; in assay [1]; in assay [2]; in assay [3]; at Glycine--tRNA ligase; in assay [4]) was > 30 µM (inactive) throughout. The Kd in assay [5] and in assay [6] was > 30 µM (inactive) throughout.

For the compound `Cc1cc2c(F)c(Oc3ncnn4cc(OC[C@@H](C)OC(=O)[C@H](C)N)c(C)c34)ccc2[nH]1` [BRIVANIB ALANINATE], the Kd (on Focal adhesion kinase 1; in assay [1]; in assay [2]; in assay [3]; on Glycine--tRNA ligase; in assay [4]) was > 30 µM (inactive) in each case. For the same compound, the Kd in assay [5] and in assay [6] was > 30 µM (inactive) throughout.
